Source: ChEMBL document CHEMBL1156996 (Bioorg Med Chem Lett, 2010)
pKi: −log10 of the molar value.

Tests used:
[1] = inhibition of Cryptococcus neoformans recombinant Can2 after 15 mins by stopped-flow CO2 hydration assay
Carbonic anhydrase = target: T1, Carbonic anhydrase (Candida albicans (strain SC5314 / ATCC MYA-2876) (Yeast), UniProt Q5AJ71); assay: inhibition of Candida albicans recombinant Nce103 after 15 mins by stopped-flow CO2 hydration assay
T1 sequence (Q5AJ71 whole entry): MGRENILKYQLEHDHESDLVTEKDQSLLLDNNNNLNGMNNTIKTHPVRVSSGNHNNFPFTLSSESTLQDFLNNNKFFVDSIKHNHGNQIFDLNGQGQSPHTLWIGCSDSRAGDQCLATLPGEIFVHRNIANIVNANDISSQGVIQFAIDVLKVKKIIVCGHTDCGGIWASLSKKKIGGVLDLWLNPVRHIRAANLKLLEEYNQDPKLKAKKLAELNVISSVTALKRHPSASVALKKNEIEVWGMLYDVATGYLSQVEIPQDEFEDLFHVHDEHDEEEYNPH

[2] = Selectivity ratio of IC50 for human CA2 to IC50 for Cryptococcus neoformans Can2
[3] = Selectivity ratio of IC50 for human CA1 to IC50 for Cryptococcus neoformans Can2
[4] = target: T2, Carbonic anhydrase (Candida albicans (strain SC5314 / ATCC MYA-2876) (Yeast)) (UniProt Q5AJ71); assay: Ratio of compound to acetazolamide activity for inhibition of Candida albicans recombinant Nce103
T2 sequence (whole entry): T1 sequence (Q5AJ71 whole entry)

Compound	pKi [1]	pKi (Carbonic anhydrase)	Ratio IC50 [2]	Ratio IC50 [3]	Ratio [4]
NNC(=O)c1[nH]c2ccc(S(N)(=O)=O)cc2c1-c1ccccc1F	8.10	7.33	–	–	–
NNC(=O)c1[nH]c2ccc(S(N)(=O)=O)cc2c1-c1ccc(Br)cc1	6.93	7.03	–	–	–
Cc1cc(C)[n+](NC(=O)c2[nH]c3ccc(S(N)(=O)=O)cc3c2-c2ccc(F)cc2)c(C)c1.[O-][Cl+3]([O-])([O-])[O-]	8.06	7.68	–	–	–
NNC(=O)c1[nH]c2ccc(S(N)(=O)=O)cc2c1-c1ccc(F)cc1	8.07	7.21	–	–	–
Cc1cc(C)[n+](NC(=O)c2[nH]c3ccc(S(N)(=O)=O)cc3c2-c2cccc(Br)c2)c(C)c1.[O-][Cl+3]([O-])([O-])[O-]	7.84	7.32	–	–	–
Cc1cc(C)[n+](NC(=O)c2[nH]c3ccc(S(N)(=O)=O)cc3c2-c2ccccc2Br)c(C)c1.[O-][Cl+3]([O-])([O-])[O-]	7.92	7.35	–	–	–
Cc1ccc(-c2c(C(=O)N[n+]3c(C)cc(C)cc3C)[nH]c3ccc(S(N)(=O)=O)cc23)cc1.[O-][Cl+3]([O-])([O-])[O-]	8.23	7.39	–	–	–
NNC(=O)c1[nH]c2ccc(S(N)(=O)=O)cc2c1-c1ccccc1	7.14	7.07	–	–	–
NNC(=O)c1[nH]c2ccc(S(N)(=O)=O)cc2c1-c1cccc(F)c1	8.14	7.27	–	–	–
Cc1cc(C)[n+](NC(=O)c2[nH]c3ccc(S(N)(=O)=O)cc3c2-c2ccccc2C)c(C)c1.[O-][Cl+3]([O-])([O-])[O-]	8.19	7.21	–	–	–
COc1cccc(-c2c(C(=O)NN)[nH]c3ccc(S(N)(=O)=O)cc23)c1	7.92	6.89	–	–	–
NNC(=O)c1[nH]c2ccc(S(N)(=O)=O)cc2c1-c1ccccc1Cl	8.10	7.35	4.8	80	–
NNC(=O)c1[nH]c2ccc(S(N)(=O)=O)cc2c1-c1ccccc1Br	7.21	7.09	–	–	–
Cc1cc(C)[n+](NC(=O)c2[nH]c3ccc(S(N)(=O)=O)cc3c2-c2ccccc2F)c(C)c1.[O-][Cl+3]([O-])([O-])[O-]	7.79	7.72	–	–	–
NNC(=O)c1[nH]c2ccc(S(N)(=O)=O)cc2c1-c1cccc(Br)c1	7.03	7.06	–	–	–
Cc1cc(C)[n+](NC(=O)c2[nH]c3ccc(S(N)(=O)=O)cc3c2-c2ccc(Cl)cc2)c(C)c1.[O-][Cl+3]([O-])([O-])[O-]	8.51	7.54	–	–	–
COc1cccc(-c2c(C(=O)N[n+]3c(C)cc(C)cc3C)[nH]c3ccc(S(N)(=O)=O)cc23)c1.[O-][Cl+3]([O-])([O-])[O-]	8.08	6.92	–	–	–
Cc1cc(C)[n+](NC(=O)c2[nH]c3ccc(S(N)(=O)=O)cc3c2-c2ccc(Br)cc2)c(C)c1.[O-][Cl+3]([O-])([O-])[O-]	7.96	7.28	–	–	–
Cc1cc(C)[n+](NC(=O)c2[nH]c3ccc(S(N)(=O)=O)cc3c2-c2cccc(F)c2)c(C)c1.[O-][Cl+3]([O-])([O-])[O-]	8.08	7.62	–	–	–
Cc1cccc(-c2c(C(=O)N[n+]3c(C)cc(C)cc3C)[nH]c3ccc(S(N)(=O)=O)cc23)c1.[O-][Cl+3]([O-])([O-])[O-]	8.21	7.19	–	–	–
Cc1ccc(-c2c(C(=O)NN)[nH]c3ccc(S(N)(=O)=O)cc23)cc1	7.98	7.28	–	–	–
Cc1cc(C)[n+](NC(=O)c2[nH]c3ccc(S(N)(=O)=O)cc3c2-c2ccccc2Cl)c(C)c1.[O-][Cl+3]([O-])([O-])[O-]	7.81	7.48	–	–	–
Cc1cc(C)[n+](NC(=O)c2[nH]c3ccc(S(N)(=O)=O)cc3c2-c2c(F)c(F)c(F)c(F)c2F)c(C)c1.[O-][Cl+3]([O-])([O-])[O-]	7.22	8.29	–	–	–
Cc1cc(C)[n+](NC(=O)c2[nH]c3ccc(S(N)(=O)=O)cc3c2-c2cccc(Cl)c2)c(C)c1.[O-][Cl+3]([O-])([O-])[O-]	8.36	7.51	–	–	–
Cc1cccc(-c2c(C(=O)NN)[nH]c3ccc(S(N)(=O)=O)cc23)c1	8.04	7.37	5.1	80.2	–
Cc1cc(C)[n+](NC(=O)c2[nH]c3ccc(S(N)(=O)=O)cc3c2-c2ccccc2)c(C)c1.[O-][Cl+3]([O-])([O-])[O-]	7.78	7.38	–	–	–
NNC(=O)c1[nH]c2ccc(S(N)(=O)=O)cc2c1-c1cccc(Cl)c1	8.13	7.28	–	–	–
NNC(=O)c1[nH]c2ccc(S(N)(=O)=O)cc2c1-c1c(F)c(F)c(F)c(F)c1F	6.99	–	–	–	17.6
NNC(=O)c1[nH]c2ccc(S(N)(=O)=O)cc2c1-c1ccc(Cl)cc1	7.15	7.26	–	–	–
Cc1ccccc1-c1c(C(=O)NN)[nH]c2ccc(S(N)(=O)=O)cc12	8.04	7.11	–	–	–
